Test results from PMC10023787, “Trio-pharmacophore DNA-encoded chemical library for simultaneous selection of fragments and linkers” (Nature Communications, 2023).

Target: T1, bovine carbonic anhydrase II (CAII) (Bos taurus, UniProt P00921)
T1 construct: purchased Sigma-Aldrich C7749
Experiment: Carbonic anhydrase II inhibition assay (esterase activity on p-nitrophenyl acetate)
Format: biochemical
Conditions: for remaining activity at 0.0001024 µM: 0.1024 nM compound; for remaining activity at 0.000512 µM: 0.512 nM compound; for remaining activity at 0.00256 µM: 2.56 nM compound; for remaining activity at 0.064 µM: 64 nM compound; for remaining activity at 0.32 µM: 320 nM compound; for remaining activity at 1.6 µM: 1600 nM compound; for remaining activity at 8 µM: 8000 nM compound; for remaining activity at 200 µM: 200000 nM compound; for IC50: mean ± SE, three independent measurements, n.d: not detected
Method: CAII inhibition assay was performed to measure the inhibitory effect of re-synthesized CBS-conjugates. The esterase activity of CAII with a chromogenic substrate p-nitrophenyl acetate (pNPA) was measured. The rates of hydrolysis were determined by an increase of absorption at 410 nm after incubating different compounds with CAII. Re-synthesized compounds were diluted in a serial spanning mM to μM concentrations. […] 5 µl of pNPA (50 mM in 20% DMSO) was added to the plate right before the measurement. The absorption was measured at 37 °C each 10 sec for 15 min using a Beckman Coulter’s Paradigm Detection Platform (Brea, USA). The initial Vmax was obtained from the increase of absorption and the Vmax was plotted against the inhibitor concentrations and logistic fitting was performed to obtain IC50 values using Origin 2019b (OriginLab) software.

[1] = source data of Fig. 2c, read-out: Normalized CA II Activity (Mean)

T1 sequence (P00921 whole entry): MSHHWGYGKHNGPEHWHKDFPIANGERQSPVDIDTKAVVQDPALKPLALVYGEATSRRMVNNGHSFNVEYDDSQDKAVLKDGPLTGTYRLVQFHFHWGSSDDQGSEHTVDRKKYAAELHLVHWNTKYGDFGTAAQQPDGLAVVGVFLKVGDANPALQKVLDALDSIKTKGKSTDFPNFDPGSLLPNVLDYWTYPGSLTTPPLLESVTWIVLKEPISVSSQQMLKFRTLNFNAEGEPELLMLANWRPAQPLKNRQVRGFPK

remaining activity at 0.0001024 µM [1] | remaining activity at 0.000512 µM [1] | remaining activity at 0.00256 µM [1] | remaining activity at 0.064 µM [1] | remaining activity at 0.32 µM [1] | remaining activity at 1.6 µM [1] | remaining activity at 8 µM [1] | remaining activity at 200 µM [1] | IC50 | remaining activity at 40 µM (40000 nM compound, source data of Fig. 2c, read-out: Normalized CA II Activity (Mean)) | SMILES
93.3% | 94% | 93.6% | 84.9% | 65.6% | 45.7% | 38.2% | 20.9% | 830 nM |  | NS(=O)(=O)c1ccc(NC(=O)/C=C/c2ccc(-c3ccccc3C(F)(F)F)o2)cc1 [Compound C-0]
93.8% | 93.6% | 90.4% | 87.7% | 71.8% | 43% | 19.9% | 2.91% | 1290 ± 90 nM | 8.01% | NS(=O)(=O)c1ccc(NCc2ccc(C(=O)NCCNC(=O)/C=C/c3ccc(-c4ccccc4C(F)(F)F)o3)cc2)cc1 [Compound C-1]
